# Data taken from paper PMC8316002, “Inhibition of Escherichia coli Lipoprotein Diacylglyceryl Transferase Is Insensitive to Resistance Caused by Deletion of Braun’s Lipoprotein” (Journal of Bacteriology, 2021).
# Where a SMILES comes first, the peptide text is derived from it. Bridges are numbered along the chain shown (N, C = ends). [ ]: non-standard residue; d: D form. Bip = N[C@@H](Cc1ccc(-c2ccccc2)cc1)C(=O)O; NMeF = CN[C@@H](Cc1ccccc1)C(=O)O
# What was measured:
# WT CFT073 = assay: MIC assay, WT CFT073 (Table 1); assay type: cell-based, E. coli; conditions: Escherichia coli, average of two independent experiments, each in duplicates, CLSI
# Procedure: (§1) Unless stated otherwise, E. coli cells were grown in Luria-Bertani (LB) medium (0.5% yeast extract, 1% tryptone, 0.5% NaCl) at 37°C. Where indicated, kanamycin (Kan) was added to culture media at a 50-μg/ml final concentration. MIC assays were performed based on Clinical and Laboratory Standards Institute (CLSI) guidelines. For in vitro growth curves, overnight cultures of WT CFT073, CFT073 Δlgt, and CFT073 Δlgt complemented with lgt from E. coli (lgt^Ec) or P. aeruginosa (lgt^Pa) were grown to mid-exponential phase (optical density at 600 nm [OD600] of 0.6) and then diluted to an OD600 of 0.1 to initiate growth curves. At various times, culture aliquots were diluted and plated in dilutions on LB+Kan agar, and CFU were enumerated in duplicates. Growth of MG1655 inducible deletion strains was measured by culturing in the presence of 2-fold dilutions of arabinose (starting arabinose concentrations for CFT073 and MG1655 inducible deletion strains were 4% and 0.8%, respectively). While […] was sufficient for WT growth of MG1655 Δlgt, 4% arabinose was used for CFT073 Δlgt based on comparing its growth to that of WT CFT073 as measured by CFU. OD600 growth measurements were performed using an EnVision 2101 multilabel reader plate reader (PerkinElmer) linked with Echo liquid handler (Labcyte). For time-kill experiments, bacteria were harvested in mid-exponential phase and treated with 12.5 μM G2824, 3.2 μM globomycin, and 1.6 μM vancomycin. CFU were enumerated at various times posttreatment. Bacterial culture medium containing 2% arabinose was used to induce lpp or lppΔK expression from pBad24 plasmids. Bacterial viability at different time points during the treatment was measured by enumerating CFU. Serum killing assays were carried out as previously described ([17]).
# CFT073 Δlgt [1] = assay: MIC assay, CFT073 Δlgt, Lgt 4% Ara; assay type: cell-based, E. coli; conditions: Escherichia coli
# Procedure: as §1
# CFT073 Δlgt [2] = assay: MIC assay, CFT073 Δlgt, Lgt 0.25% Ara; assay type: cell-based, E. coli; conditions: Escherichia coli
# Procedure: as §1
# CFT073 imp4213 lpp^Ara = assay: Western blot of Lpp forms, arabinose-inducible Lpp; assay type: cell-based, E. coli; conditions: Lpp induced with arabinose prior to treatment
# Text: Lpp expression was induced prior to treatment with G2824 or globomycin to minimize the level of preexisting triacylated Lpp.
# Bacterial cell samples normalized for equivalent OD600 and resuspended in BugBuster lysis buffer (Fischer Scientific) with the addition of sample buffer (LI-COR), and proteins were separated by SDS-PAGE using 16% Tricine protein gels or NuPAGE 4% to 20% bis-Tris gels (Thermo Fisher Scientific), transferred to nitrocellulose membranes using the iBlot 2 dry blotting system (Invitrogen), and blocked using LI-COR blocking buffer for 30 min. Unless stated otherwise, loading buffer with reducing agents was added and samples were not boiled prior to SDS-PAGE. For the sucrose gradient centrifugation, samples were boiled prior to running the SDS-PAGE. Primary antibodies were used at a final concentration of 1 μg/ml with some exceptions: rabbit anti-Lpp polyclonal antibody (0.1 μg/ml), murine anti-Pal 6D7 antibody (0.5 μg/ml), rabbit anti-GroEL antibody (1:10,000 final dilution), and rabbit anti-OmpA antibody (1:50,000 final dilution). The secondary antibodies were all obtained from LI-COR and used as per manufacturer’s instructions. Images were collected using the Odyssey CLx imaging system (LI-COR) and analyzed by Image Studio Lite.
# BW25113 cells, lgt gRNA = assay: CRISPRi knockdown sensitization, lgt gRNA; assay type: cell-based, E. coli; conditions: 2 μM G2824, 0.05 μM globomycin or 0.016 μM ciprofloxacin; OD600 relative to untreated, versus scr or folA gRNA
# Text: (§2) The two-plasmid bacterial CRISPRi system pdCas9-bacteria_GNE and PGNRNA-bacteria_GNE are based on the AddGene plasmids 44249 and 44251 ([73]), respectively. The plasmid was synthesized in smaller DNA fragments (500 bp to 3 kb) (IDT gBlocks) and assembled by Gibson assembly (NEB) according to the manufacturer’s protocols. Plasmids were confirmed by sequencing (ELIM Bio). gRNAs were designed to target the 5′ end of the gene on the nontemplate strand using Benchling CRISPR software ([74]). gRNAs were cloned into PGNRNA-bacteria using Gibson assembly (NEB) according to the manufacturer’s protocols and sequence confirmed (ELIM Bio).
# (§3) Bacterial cultures were grown overnight on LB agar supplemented with carbenicillin (50 μg/ml) and chloramphenicol (12.5 μg/ml) to maintain both plasmids, pdCas9-bacteria and PGNRNA-bacteria with each gRNA as appropriate. Cells were scraped from the plate into fresh medium. The OD600 was measured, and the culture was subsequently diluted to an OD600 0.001 in the presence or absence of G2824, globomycin, or ciprofloxacin. Two hundred microliters was transferred to a 96-well plate (Corning) and monitored for growth by measuring the OD600 (EnVision multimode plate reader; PerkinElmer). All treatments were performed in triplicates. The specificity of CRISPRi downregulation was measured using reverse transcriptase quantitative PCR (RT-qPCR).
# BW25113 cells, lspA gRNA = assay: CRISPRi knockdown sensitization, lspA gRNA; assay type: cell-based, E. coli; conditions: 2 μM G2824, 0.05 μM globomycin or 0.016 μM ciprofloxacin; OD600 relative to untreated, versus scr or folA gRNA
# Text: as §2, §3
# CFT073 imp4213 = assay: SDS fractionation (PAP and non-PAP) of Lpp and Pal; assay type: cell-based, E. coli; conditions: 0.5× MIC, 60 min, PAP fraction
# Procedure: Purification of PGN-associated proteins (PAP) was performed according to published methods ([17], [40], [41]) with some modifications. Briefly, bacteria were harvested in mid-exponential phase for treatment and then subjected to PAP extraction by resuspending the cell pellets from an OD (A600) of 10 in 6 ml of PAP extraction buffer containing 2% (wt/vol) SDS in 100 mM Tris-HCl (pH 8.0) with 100 mM NaCl, 10% glycerol, and cOmplete, mini, EDTA-free protease inhibitor cocktail (Sigma-Aldrich). After 60 min at RT, the extraction was subjected to centrifugation at 100,000 × g for 60 min at 22°C, and the pellet, containing PGN and associated proteins, was washed once with the same PAP extraction buffer with centrifugation at 100,000 × g for 30 min and resuspended in 200 μl of PAP extraction buffer (referred to as the SDS-insoluble on PAP fraction). The supernatant containing the SDS-soluble fraction was aliquoted and frozen (referred to as non-PAP fraction). Both fractions were treated with equal volumes of BugBuster buffer prior to the addition of sample buffer for Western immunoblotting as described above. It should be noted that the final PAP fractions were ∼30-fold more concentrated than the non-PAP fractions.
# Solubility (remark) = assay type: physicochemical; conditions: prevented agar plate-based resistance selections
smiles,measurement,setting,value
CN[C@H](CC(C)C)C(=O)N[C@H]1C(=O)N[C@@H](CC(N)=O)C(=O)N[C@H]2C(=O)N[C@H]3C(=O)N[C@H](C(=O)N[C@H](C(=O)O)c4cc(O)cc(O)c4-c4cc3ccc4O)[C@H](O)c3ccc(c(Cl)c3)Oc3cc2cc(c3O[C@@H]2O[C@H](CO)[C@@H](O)[C@H](O)[C@H]2O[C@H]2C[C@](C)(N)[C@H](O)[C@H](C)O2)Oc2ccc(cc2Cl)[C@H]1O [Vancomycin],MIC,WT CFT073,> 100 µM
same,MIC,CFT073 Δlgt [1],> 100 µM
same,MIC,CFT073 Δlgt [2],12.5 µM
CCCCCC[C@H]1OC(=O)CNC(=O)[C@H]([C@H](C)O)NC(=O)[C@H](CO)NC(=O)[C@H]([C@H](C)CC)NC(=O)[C@H](CC(C)C)N(C)C(=O)[C@@H]1C [Globomycin],level of mature Lpp,CFT073 imp4213 lpp^Ara,decreased mature Lpp
same,sensitization by decreased lgt expression,"BW25113 cells, lgt gRNA",not globomycin
same,sensitization by decreased lspA expression,"BW25113 cells, lspA gRNA",enhanced growth inhibition
same,levels of PGN-linked Lpp and Pal,CFT073 imp4213,accumulation of PGN-linked DGPLP (§) and other PGN-linked Lpp forms (†)
CN1C(=O)[C@H](Cc2ccc(-c3ccccc3)cc2)NC(=O)CNC(=O)[C@H](CC(=O)O)NC(=O)[C@@H](Cc2ccccc2)NC(=O)CSC[C@@H](C(=O)NCC(=O)N[C@@H](CCCCN)C(=O)N[C@@H](CCCCN)C(N)=O)NC(=O)[C@H](CCCNC(=N)N)NC(=O)[C@H](CO)NC(=O)[C@H](Cc2ccc(-c3ccccc3)cc2)NC(=O)[C@@H]1Cc1ccccc1 [G2824] ({CH2CO}-[dF]DG[Bip][NMeF][Bip]SRCGKK-NH2; thioether N-9),solubility,Solubility (remark),solubility issues
